Data set [1] concerns C[C@H](N)C(=O)N[C@@H](C)C(=O)O. The data set is described as follows: [3H]Ala-Ala uptake kinetics (Km) in E. coli cells overexpressing the transporter. Type of data set: cell-based, Yersinia enterocolitica.
For data set [2], the target named is T1, YePEPT (Yersinia enterocolitica, UniProt A0A2R9TD79, K314A/S412A).
T1 construct: gene YEP4_02370; YePEPT^K314A-S412A, detergent-purified, His-tagged
Nature of the data set: label-free DSF thermal shift at […] LZNV (no Kd). Type of data set: binding.

For data set [3], the target named is T2, YePEPT (Yersinia enterocolitica, UniProt A0A2R9TD79, K314Q/P315G).
T2 construct: gene YEP4_02370; YePEPT^K314Q-P315G, detergent-purified, His-tagged
Nature of the data set: label-free DSF thermal shift at […] LZNV (no Kd). Type of data set: binding.

Data set [4] deals with T3, YePEPT (Yersinia enterocolitica, UniProt A0A2R9TD79, K314A).
T3 construct: gene YEP4_02370; YePEPT-K314A, C-terminal HRV3C site and His10 tag (cleaved for crystallisation)
T3 sequence (A0A2R9TD79 1-511 K314A): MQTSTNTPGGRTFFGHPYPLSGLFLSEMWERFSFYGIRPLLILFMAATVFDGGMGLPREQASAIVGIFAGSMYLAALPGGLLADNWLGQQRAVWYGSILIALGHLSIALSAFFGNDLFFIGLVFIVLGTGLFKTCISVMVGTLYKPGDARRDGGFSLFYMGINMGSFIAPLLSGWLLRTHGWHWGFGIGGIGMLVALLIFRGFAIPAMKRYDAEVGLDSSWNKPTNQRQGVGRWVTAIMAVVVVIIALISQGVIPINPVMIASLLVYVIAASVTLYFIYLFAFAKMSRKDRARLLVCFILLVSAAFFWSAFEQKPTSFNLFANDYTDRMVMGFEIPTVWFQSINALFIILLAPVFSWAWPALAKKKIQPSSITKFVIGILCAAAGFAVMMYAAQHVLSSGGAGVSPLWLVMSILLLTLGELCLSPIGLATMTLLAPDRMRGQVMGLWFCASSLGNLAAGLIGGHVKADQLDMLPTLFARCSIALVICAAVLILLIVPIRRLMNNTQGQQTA
The data set is described as follows: co-crystal structure at […] Å; also thermal shift; IC50 from [3H]Ala-Ala uptake in E. coli cells. Type of data set: cell-based.

For orientation: Km means the concentration of substrate that gives half-maximal velocity. The IC50 is the concentration that inhibits the measured activity by half.

Turning to “YePEPT (Yersinia enterocolitica subsp. palearctica YE-P4; K314A)”, the Km in data set [1] amounted to 57.3 µM.

With `CC(C)[C@H](NC(=O)[C@@H](N)CCCCNC(=O)OCc1ccc([N+](=O)[O-])cc1)C(=O)O` [LZNV, Lys[Z(NO2)]-Val], the “label-free DSF thermal shift at 200-800 μM LZNV (no Kd)” value at YePEPT [2] is reported as “YePEPT^K314A-S412A still showed a strong dose-dependent stabilisation by LZNV”; on YePEPT [3] it was “This variant shows a concentration-dependent stabilisation by LZNV similar to YePEPT^K314A”. Moreover, on YePEPT [4], the IC50 worked out at 7.6 µM.
